{"source": "patent US20120302534A1", "about": "“DERIVATIVES OF BETULIN” (priority 2010, published 2012)", "origin": "cited, not measured here", "system": "HIV"}
{"smiles": "C=C(C)[C@@H]1CC[C@]2(C(=O)O)CC[C@]3(C)[C@H](CC[C@@H]4[C@@]5(C)CC[C@H](OC(=O)CC(C)(C)C(=O)O)C(C)(C)[C@@H]5CC[C@]43C)[C@@H]12", "note": "[Bevirimat]", "values": [{"measurement": "reduced HIV viral load by a mean of", "setting": "patients who achieved trough levels of >=20 μg/mL and without key baseline Gag polymorphisms at Q369, V370 or T371", "value": 1.3, "unit": "log10/mL"}, {"measurement": "viral load reduction versus patients without Gag polymorphisms", "setting": "users with Gag polymorphisms at Q369, V370 or T371", "value": "significantly lower load reductions"}]}
